“And” between values parts separate entries of the source, which are not always exact repeats. Equal entries are not always repeated.
Assay: excess molar enthalpy (molar enthalpy of mixing); xn = mol fraction of the nth substance listed
Conditions: 323.1 K, Liquid

O=C=O [carbon dioxide] + O
Conditions | excess molar enthalpy
2060 kPa, x1 = 0.0032 | -0.0113 kcal/mol
2060 kPa, x1 = 0.0037 | -0.0131 kcal/mol
2060 kPa, x1 = 0.004 | -0.0138 kcal/mol
2060 kPa, x1 = 0.0042 | -0.0152 kcal/mol
2060 kPa, x1 = 0.0048 | -0.0168 kcal/mol
2060 kPa, x1 = 0.0058 | -0.0199 kcal/mol
2060 kPa, x1 = 0.006 | -0.022 kcal/mol
2060 kPa, x1 = 0.0064 | -0.0216 kcal/mol
2060 kPa, x1 = 0.0079 | -0.0221 kcal/mol and -0.0222 kcal/mol
2060 kPa, x1 = 0.0106 | -0.0228 kcal/mol
2060 kPa, x1 = 0.0126 | -0.0224 kcal/mol
2060 kPa, x1 = 0.0158 | -0.0228 kcal/mol
2060 kPa, x1 = 0.021 | -0.0223 kcal/mol
2060 kPa, x1 = 0.0311 | -0.0225 kcal/mol
5100 kPa, x1 = 0.0052 | -0.0162 kcal/mol
5100 kPa, x1 = 0.0064 | -0.02 kcal/mol
5100 kPa, x1 = 0.0084 | -0.0261 kcal/mol
5100 kPa, x1 = 0.0092 | -0.029 kcal/mol
5100 kPa, x1 = 0.0101 | -0.0323 kcal/mol
5100 kPa, x1 = 0.0105 | -0.0331 kcal/mol
5100 kPa, x1 = 0.011 | -0.0344 kcal/mol
5100 kPa, x1 = 0.012 | -0.0373 kcal/mol
5100 kPa, x1 = 0.0125 | -0.0394 kcal/mol
5100 kPa, x1 = 0.0136 | -0.0412 kcal/mol
5100 kPa, x1 = 0.0138 | -0.0417 kcal/mol
5100 kPa, x1 = 0.0147 | -0.0429 kcal/mol
5100 kPa, x1 = 0.0151 | -0.0441 kcal/mol
5100 kPa, x1 = 0.0155 | -0.0438 kcal/mol
5100 kPa, x1 = 0.0156 | -0.0448 kcal/mol
5100 kPa, x1 = 0.0172 | -0.0438 kcal/mol
5100 kPa, x1 = 0.0181 | -0.0441 kcal/mol
5100 kPa, x1 = 0.019 | -0.0454 kcal/mol
5100 kPa, x1 = 0.0201 | -0.0438 kcal/mol
5100 kPa, x1 = 0.0208 | -0.0453 kcal/mol
5100 kPa, x1 = 0.0254 | -0.0443 kcal/mol
10530 kPa, x1 = 0.01 | -0.0178 kcal/mol
10530 kPa, x1 = 0.012 | -0.0208 kcal/mol
10530 kPa, x1 = 0.0132 | -0.0243 kcal/mol
10530 kPa, x1 = 0.0165 | -0.0301 kcal/mol
10530 kPa, x1 = 0.0197 | -0.0321 kcal/mol
10530 kPa, x1 = 0.023 | -0.0348 kcal/mol
10530 kPa, x1 = 0.0249 | -0.0347 kcal/mol
10530 kPa, x1 = 0.026 | -0.037 kcal/mol
10530 kPa, x1 = 0.0323 | -0.0368 kcal/mol
10530 kPa, x1 = 0.0324 | -0.0368 kcal/mol
10530 kPa, x1 = 0.0446 | -0.0361 kcal/mol
10530 kPa, x1 = 0.0508 | -0.0359 kcal/mol
10530 kPa, x1 = 0.0625 | -0.0354 kcal/mol
10530 kPa, x1 = 0.0627 | -0.0356 kcal/mol
14200 kPa, x1 = 0.0105 | -0.0142 kcal/mol
14200 kPa, x1 = 0.0125 | -0.0168 kcal/mol
14200 kPa, x1 = 0.0139 | -0.0189 kcal/mol
14200 kPa, x1 = 0.0173 | -0.0225 kcal/mol
14200 kPa, x1 = 0.0207 | -0.025 kcal/mol
14200 kPa, x1 = 0.0241 | -0.0268 kcal/mol
14200 kPa, x1 = 0.0248 | -0.027 kcal/mol
14200 kPa, x1 = 0.0261 | -0.0277 kcal/mol
14200 kPa, x1 = 0.0274 | -0.0279 kcal/mol
14200 kPa, x1 = 0.0287 | -0.0288 kcal/mol
14200 kPa, x1 = 0.0307 | -0.029 kcal/mol
14200 kPa, x1 = 0.034 | -0.0284 kcal/mol
14200 kPa, x1 = 0.047 | -0.0283 kcal/mol
14200 kPa, x1 = 0.0658 | -0.0279 kcal/mol
20200 kPa, x1 = 0.011 | -0.0128 kcal/mol
20200 kPa, x1 = 0.0147 | -0.0167 kcal/mol
20200 kPa, x1 = 0.0183 | -0.0207 kcal/mol
20200 kPa, x1 = 0.0197 | -0.0216 kcal/mol
20200 kPa, x1 = 0.021 | -0.0236 kcal/mol
20200 kPa, x1 = 0.0239 | -0.0236 kcal/mol
20200 kPa, x1 = 0.0253 | -0.0238 kcal/mol
